Experimental data from patent US20160039936A1, “FIBROBLAST GROWTH FACTOR RECEPTOR INHIBITION FOR THE TREATMENT OF DISEASE” (UNIVERSITY OF MIAMI, priority 2011, published 2016).
Entries after “also recorded” stand apart in the source; their conditions may differ.

System: isolated neonatal rat ventricular cardiac myocytes (NRVM)
Assay: Surface area (hypertrophy) of isolated NRVM, immunocytochemistry and morphometry (Examples 1-2)
Format: cell-based
Conditions: for FGF2-induced increase in cell surface area (hypertrophy) in presence of inhibitor: 48 h FGF2, inhibitor pre-treated 60 min at Table 2 concentration; for FGF23-induced increase in cell surface area (hypertrophy) in presence of inhibitor: 48 h FGF23, inhibitor pre-treated 60 min at Table 2 concentration
Description: NRVM were isolated using a standard isolation system (Worthington Biochemical Corporation) (Toraason et al., Toxicology, 56(1):107-117, 1989). Hearts from 1-2 day old Sprague Dawley rats (Charles River) were harvested, minced in calcium- and magnesium-free Hank's Balanced Salt Solution (HBSS), and the tissue digested with 50 μg/ml trypsin at 4° C. for 20-24 hours. Soybean trypsin inhibitor in HBSS was added and the tissue was further digested with collagenase (in Leibovitz L-15 medium) under slow rotation (15 rpm) at 37° C. for 45 minutes. Cells were released by gently triturating the suspension 20 times with a standard 10 ml plastic serological pipette and filtering it twice through a cell strainer (70 μm, BD Falcon). Cells were incubated at room temperature for 20 minutes and spun at 100 g for 5 minutes. The cell pellet was resuspended in plating medium [Dulbecco's Modified Eagle Medium (DMEM; Cellgro) with 17% Media 199 (Invitrogen), 15% fetal bovine serum (FBS; Invitrogen) and 1% penicillin/streptomycin solution (P/S; Invitrogen)]. Cells were counted using a hemocytometer.
Cells were plated on glass and plastic surfaces which were coated with laminin (Invitrogen; 10μg/ml in PBS) at room temperature for 1 hour prior to plating. For immunofluorescence analysis, 1×10^6 cells were seeded per well on glass coverslips in 6-well plates. For protein and RNA isolation, 2×10^6 cells were seeded in 6 cm-culture dishes. Cells were left undisturbed in plating medium at 37° C. for 72 hours and then cultured in maintenance medium (DMEM with 20% Media 199, 1% insulin-transferrin-sodium selenite solution (ITS; Sigma-Aldrich) and 1% P/S) in the presence of 100 μM 5-bromo-2′-deoxyuridine (BrdU; Sigam-Aldrich) to eliminate proliferating non-myocytes resulting in a relatively pure population of isolated cardiac myocytes (Bishopric et al., 1987). After 4 days, isolated cardiac myocytes were cultured in BrdU-containing maintenance medium in the presence of recombinant murine FGF23 (26.1 kDa, 251 amino acids; R&D Systems) or FGF2 (16.2 kDa, 144 amino acids; R&D Systems) for 48 hours.
We analyzed isolated NRVM on laminin-coated glass coverslips by immunocytochemsitry according to our established protocols (Faul et al., Cell Biol., 169(3):415-424, 2005; Faul et al., Cell Biol., 27(23):8215-8227, 2007). The mouse monoclonal antibody against sarcomeric α-actinin (EA-53; Sigma-Aldrich) was used at 1:1000 and Cy3-conjugated goat-anti mouse (Jackson Immuno Research) as secondary antibody at 1:750. To visualize nuclei, fixed cells were incubated with 4′,6-diamidino-2-phenylindole (DAPI; 400 ng/ml in PBS) for 5 minutes. Immunofluorescence images were taken on a Leica TCS-SP5 confocal microscope with a 63× oil objective with a 1.6× zoom. Leica AF6000 fluorescence software was used to measure the cell surface area based on α-actinin-positive staining.
To assess the signaling pathways involved in FGF23- and FGF2-mediated hypertrophy, we analyzed the morphometry of plated cells that were pre-treated with specific inhibitors for 60 minutes prior to the addition of the FGFs at varying concentrations.

Compound	FGF2-induced increase in cell surface area (hypertrophy) in presence of inhibitor	FGF23-induced increase in cell surface area (hypertrophy) in presence of inhibitor	cell surface area (48 h incubation with the FGF alone)
O=c1[nH]c2ccccc2n1C1CCN(Cc2ccc(-c3nc4cc5nc[nH]c5cc4nc3-c3ccccc3)cc2)CC1 [A6730]	partially attenuated	did not significantly alter	
COc1cccc(-c2cc(=O)c3ccccc3o2)c1N [PD98059]	completely prevented	only partially diminished	
N#CC(=C(/N)Sc1ccccc1N)/C(C#N)=C(\N)Sc1ccccc1N [U0126]	completely prevented	only partially diminished	
COc1ccc2c(c1)CC[C@@H]1[C@@H]2CC[C@]2(C)[C@@H](NCCCCCCN3C(=O)C=CC3=O)CC[C@@H]12 [U73122]	had no effect	attenuated	
FGF4			no change in size; also recorded: did not induce a hypertrophic response
